Patent publication US5610174A, “Use of α1A -selective adrenoceptor agonists for the treatment of urinary incontinence” (priority 1995, dated 1997)
Like-named read-outs stand apart in the source and are kept apart here.

Columns and labels:
[1] = target: T1, human α1B adrenoceptor (Homo sapiens, UniProt P35368); experiment: Radioligand binding ([3H]prazosin) at cloned human α1B
T1 construct: The entire coding region of the α1B receptor (1563 bp); expressed in transfected cells
T1 sequence (P35368 1-520): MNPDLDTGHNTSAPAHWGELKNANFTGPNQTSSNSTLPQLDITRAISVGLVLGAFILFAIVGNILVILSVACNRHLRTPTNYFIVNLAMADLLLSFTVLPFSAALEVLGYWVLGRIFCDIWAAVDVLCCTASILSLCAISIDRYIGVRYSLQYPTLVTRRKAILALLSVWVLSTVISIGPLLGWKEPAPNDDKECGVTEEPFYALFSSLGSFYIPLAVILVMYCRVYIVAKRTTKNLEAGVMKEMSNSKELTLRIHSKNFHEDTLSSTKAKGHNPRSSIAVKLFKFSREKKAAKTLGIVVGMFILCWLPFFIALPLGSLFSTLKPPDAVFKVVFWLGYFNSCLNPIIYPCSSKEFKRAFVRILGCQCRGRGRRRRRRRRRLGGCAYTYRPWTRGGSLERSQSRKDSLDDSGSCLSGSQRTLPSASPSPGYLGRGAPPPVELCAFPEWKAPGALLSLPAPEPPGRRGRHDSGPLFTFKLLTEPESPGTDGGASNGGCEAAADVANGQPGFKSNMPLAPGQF
Procedure: These cell lines were prepared by transfecting the cloned cDNA or cloned genomic DNA or constructs containing both genomic DNA and cDNA encoding the human α-adrenoceptors as follows:
The construct involved ligating the full-length containing EcoRI brainstem cDNA fragment from λ ZapII into the expression vector. Stable cell lines were obtained as described above.
Transfected cells from culture flasks were scraped into 5 ml of 5 mM Tris-HCl, 5 mM EDTA, pH 7.5, and lysed by sonication. The cell lysates were centrifuged at 1000 rpm. for 5 min at 4° C., and the supernatant was centrifuged at 30,000 ×g for 20 min at 4° C. The pellet was suspended in 50 mM Tris-HCl , 1 mM MgCl2, and 0.1% ascorbic acid at pH 7.5. […] The reaction was stopped by filtration through GF/B filters using a cell harvester.

[2] = target: T2, human α2B adrenoceptor (Homo sapiens, UniProt P18089); experiment: Inhibition of forskolin stimulated adenylyl cyclase, α2B; type: cell-based; parameters: expressed in transfected cells; host or cells: Y1 cells, line Ya2B-2 (ATCC CRL 11888); settings: for Emax: read-out: intrinsic activity (i.a.) α2B
T2 sequence (P18089 1-450): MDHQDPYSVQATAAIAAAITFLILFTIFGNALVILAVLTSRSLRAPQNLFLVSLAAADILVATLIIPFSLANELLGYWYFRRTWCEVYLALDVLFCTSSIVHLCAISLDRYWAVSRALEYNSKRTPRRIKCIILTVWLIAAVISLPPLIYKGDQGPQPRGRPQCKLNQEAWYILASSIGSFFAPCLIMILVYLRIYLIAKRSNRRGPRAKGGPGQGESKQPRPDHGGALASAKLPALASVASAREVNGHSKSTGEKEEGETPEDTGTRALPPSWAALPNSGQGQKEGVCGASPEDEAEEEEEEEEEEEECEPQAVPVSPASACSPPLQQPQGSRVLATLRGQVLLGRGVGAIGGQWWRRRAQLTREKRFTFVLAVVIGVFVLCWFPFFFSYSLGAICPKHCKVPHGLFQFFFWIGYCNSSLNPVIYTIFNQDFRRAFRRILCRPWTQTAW
Procedure: α2 -Adrenoceptor-Mediated Inhibition of Forskolin Stimulated Adenylyl Cyclase
The agonist activity of test compounds was assayed by measuring their ability to inhibit adenylyl cyclase in cells stably transfected with each of the three cloned human α2 -adrenoceptors. LM(tk-) cells expressing the α2A - or the α2C -, as well as Y1 cells expressing the α2B -adrenoceptor were used. […] The formation of cyclic AMP was measured in cultures incubated with DMEM containing 1 mM theophylline. Twelve concentrations of the test compounds (from 10 pM to 100 μM) were added to the incubation medium and incubated at 37° C. for 20 min. Following this incubation step, 10 μM forskolin was added to stimulate the formation of cyclic AMP, and the cultures were incubated for another 10 min. The reaction was stopped by replacing the incubation medium with 100 mM HCl . The intracellular levels of cyclic AMP were measured by radioimmunoassay. The data from concentration-response curves was fitted to a four-parameter logistic equation, by non-linear regression analysis, to determine the pEC50 and intrinsic activity.

[3] = target: T3, human 5-HT1F receptor (Homo sapiens, UniProt P30939); experiment: Radioligand binding at human 5-HT1F
T3 construct: expressed in transfected cells; host or cells: LM(tk-) clonal cell line, designated L-5-HT1F, ATCC CRL 10957 (cell lysates)
T3 sequence (P30939 1-366): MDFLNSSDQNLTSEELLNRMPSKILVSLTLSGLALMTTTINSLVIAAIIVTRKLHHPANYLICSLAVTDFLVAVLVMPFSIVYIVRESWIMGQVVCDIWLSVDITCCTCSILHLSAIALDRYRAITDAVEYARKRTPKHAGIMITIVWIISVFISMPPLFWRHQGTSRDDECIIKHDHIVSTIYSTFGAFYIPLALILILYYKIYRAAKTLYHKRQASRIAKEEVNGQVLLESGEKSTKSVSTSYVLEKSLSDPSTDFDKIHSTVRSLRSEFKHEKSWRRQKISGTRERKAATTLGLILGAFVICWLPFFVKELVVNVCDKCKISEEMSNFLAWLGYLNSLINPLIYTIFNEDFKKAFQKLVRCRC
Procedure: Human Serotonin Receptors
5-HT1Dα, 5-HT1Dβ, 5-HT1E, 5-HT1F, and 5-HT7 Receptors: The cell lysates of LM(tk-) clonal cell line stably transfected with the genes encoding each of these 5-HT receptor-subtypes were prepared as described above. The cell line for the 5-HT1Dαreceptor, designated as Ltk-8-30-84, was deposited on Apr. […] The cell for the 5-HT1Dβ receptor, designated as Ltk-11, was deposited on Apr. […] The cell line for the 5-HT1E receptor, designated 5-HT1E -7, was deposited on Nov. […] The cell line for the 5-HT1F receptor, designated L-5-HT1F, was deposited on Dec. […] The cell line for the 5-HT7 receptor, designated as L-5-HT-4B, was deposited on Oct. […] These preparations were suspended in 50 mM Tris-HCl buffer (pH 7.4 at 37° C.) containing 10 mM MgCl2, 0.2 mM EDTA, 10 μM pargyline, and 0.1% ascorbate. […] Nonspecific binding was determined in the presence of 10 μM serotonin. The bound radioligand was separated by filtration through GF/B filters using a cell harvester.

[4] = agonist, inhibition of forskolin stimulated adenylyl cyclase, read-out: pEC50 α2B (converted)
[5] = relative to reference full agonist (e.g., norepinephrine = unity)

SMILES | Ki [1] [µM] | EC50 [2] [µM] | Emax [2] [%] | also measured
C[C@H](N)[C@H](O)c1ccccc1 [(-)-norephedrine] | 50.1 | 0.794 | 50 | –
CN[C@@H](C)[C@H](O)c1ccccc1 [(-)-ephedrine] | 100 | 0.251 | 40 | –
CS(=O)(=O)Nc1c(O)ccc2c1CCCC2C1=NCCN1 (racemic) [Compound A-61603, (±)-N-[5-(4,5-Dihydro-1H-imidazol-2-yl)-2-hydroxy-5,6,7,8-tetra-hydronaphthalen-1-yl]methanesulfonamide] | 15.8 | – | – | Ki ([3]; [3H]serotonin, read-out: pKi 5-HT1F (converted)): 5.01 µM; EC50 [2, 4]: 0.0794 µM; Emax [2, 5]: 80%
COc1ccccc1N1CCN(CCCNc2c(C)c(=O)n(C)c(=O)n2C)CC1 [Compound 5-MU] | – | – | – | Ki ([1]; Table 2, antagonists, versus 3H-prazosin, read-out: pKI (antagonist affinity, 3H-prazosin binding) hα1B (converted)): 0.126 µM
COc1cc2c(cc1OC)CN(c1cc(N)c3cc(OC)c(OC)cc3n1)CC2 [Abanoquil, 2-(6,7-Dimethoxy-3,4-dihydro-1H-isoquinolin-2-yl)-6,7-dimethoxyquinolin-4-ylamine hemifumarate hydrate] | – | – | – | pKI (antagonist affinity, 3H-prazosin binding) hα1B ([1]; Table 2, antagonists, versus 3H-prazosin): 10.1
COc1ccc(SC)c2c1C[C@@H]1[C@@H](C2)OCCN1C (relative stereo) [SDZ NVI-085, (±)-trans-4-Methyl-6-methoxy-9-thiomethoxy-3,4,4a, 5,10,10a-hexahydro-2H-naphtho[2,3-b][1,4]oxazine] | – | – | 0 | Ki ([1]; Table 3, agonists, read-out: pKi α1B (converted)): 12.6 µM; Ki [3]: 0.1 µM; EC50 [2, 4]: > 100 µM
COc1ccc(OC)c(C(O)CN)c1 (racemic) [ST-1059, (±)-2-Amino-1-(2, 5 dimethoxyphenyl) ethanol] | 12.6 | 0.00251 | 60 | –
CNCCc1ccc(O)c(NS(C)(=O)=O)c1 [SK&F 102652] | – | – | 90 | pKi 5-HT1F ([3]; [3H]serotonin): 5.3
CNC[C@H](O)c1cccc(O)c1 [(-)-phenylephrine] | – | – | – | intrinsic activity (i.a.) α2B [2, 5]: 0.8
